Experimental findings from USRE44768E1, “Rapamycin hydroxyesters” (Wyeth LLC, priority 1994, dated 2014) are described below.

Values joined by “and” are separate entries in the source; they are usually repeats but may differ in a detail not shown here. Equal entries are not always repeated. Where two headings read alike, the source gives them in different places.

Assay [1] concerns adjuvant arthritis (uninjected hind paw, T-cell mediated inflammation). Nature of the assay: adjuvant arthritis standard pharmacological test procedure. Format: in vivo, male inbread Wistar Lewis rats. Particulars: uninjected paw at day 16 versus control; oral dose of 5 mg/kg. Here is the method: The adjuvant arthritis standard pharmacological test procedure measures the ability of test compounds to prevent immune mediated inflammation and inhibit or treat rheumatoid arthritis. The following briefly describes the test procedure used. A group of rats (male inbread Wistar Lewis rats) are pre-treated with the compound to be tested (1 h prior to antigen) and then injected with Freud's Complete Adjuvant (FCA) in the right hind paw to induce arthritis. The rats are then orally dosed on a Monday, Wednesday, Friday schedule from day 0-14 for […]. Both hind paws are measured on days 16, 23, and 30. The difference in paw volume (mL) from day 16 to day 0 is determined and a percent change from control is obtained. […] The right hind paw inflammation, on the other hand, is caused by non-specific inflammation. Compounds were tested at a dose of 5 mg/kg.

Assay [2] deals with cells from the thymus of normal BALB/c mice. Nature of the assay: comitogen-induced thymocyte proliferation procedure (LAF). Particulars: for LAF ratio: ratio compared with rapamycin, greater than 1 = inhibited thymocyte proliferation to a greater extent than rapamycin; for IC50: read-out: LAF IC50.
Method: Cells are cultured with and without various concentrations of rapamycin, cyclosporin A, or test compound. Cells are harvested and incorporated radio-activity is determined. Inhibition of lymphoproliferation is assessed as percent change in counts per minute from nondrug treated controls. For each compound evaluated, rapamycin was also evaluated for the purpose of comparison. An IC50 was obtained for each test compound as well as for rapamycin. […] The results obtained are provided as an IC50 and as the percent inhibition of T-cell proliferation at 0.1 μM. […] A positive ratio indicates immunosuppressive activity.
Assay [3] has as its system pinch skin graft from male BALB/c donors transplanted to male C3H(H-2K) recipients. Nature of the assay: pinch skin graft survival test procedure. Format: in vivo. The following applies: mean graft survival time ± S.D., dose of 4 mg/kg. Here is the method:
Representative compounds of this invention were also evaluated in an in vivo test procedure designed to determine the survival time of pinch skin graft from male BALB/c donors transplanted to male C3H(H-2K) recipients. The method is adapted from Billingham R. E. and Medawar P. B., J. Exp. Biol. 28:385-402, (1951). Briefly, as pinch skin graft from the donor was grafted on the dorsum of the recipient as a allograft, and an isograft was used as control in the same region. The recipients were treated with either varying concentrations of test compounds intraperitoneally or orally. Rapamycin was used as a test control. Untreated recipients serve as rejection control. The graft was monitored daily and observations were recorded until the graft became dry and formed a blackened scab. This was considered as the rejection day. The mean graft survival time (number of days±S.D.) of the drug treatment group was compared with the control group. […] Results are expressed as the mean survival time in days. Untreated (control) pinch skin grafts are usually rejected within 6-7 days. Compounds were tested using a dose of 4 mg/kg.

[4] abbreviates: thymocytes cultured 72 hours with PHA and IL-1, tritiated thymidine incorporation.

Take `CO[C@H]1C[C@@H]2CC[C@@H](C)[C@@](O)(O2)C(=O)C(=O)N2CCCC[C@H]2C(=O)O[C@H]([C@H](C)C[C@@H]2CC[C@@H](OC(=O)CO)[C@H](OC)C2)CC(=O)[C@H](C)/C=C(\C)[C@@H](O)[C@@H](OC)C(=O)[C@H](C)C[C@H](C)/C=C/C=C/C=C/1C` [Example 2, Rapamycin 42-ester with hydroxyacetic acid]: the “Percent change in adjuvant arthritis versus control” value in assay [1] is −88%. Also, the LAF ratio in assay [2] amounted to 0.83. For the same compound, the IC50 in assay [2] (setting [4]) amounted to 1.8 nM.
Take `COC1CC2CCC(C)C(O)(O2)C(=O)C(=O)N2CCCCC2C(=O)OC(C(C)CC2CCC(OC(=O)C(C)(C)COC3CCCCO3)C(OC)C2)CC(=O)C(C)C=C(C)C(O)C(OC)C(=O)C(C)CC(C)C=CC=CC=C1C` (centres unmarked) [Example 3, Rapamycin 42-ester with 2,2-dimethyl-3-(tetrahydropyran-2-yloxy)propionic acid]: the LAF ratio in assay [2] is reported as 0.34. For the same compound, in assay [2] (setting [4]), the IC50 is 7.1 nM.
As to `CO[C@H]1C[C@@H]2CC[C@@H](C)[C@@](O)(O2)C(=O)C(=O)N2CCCC[C@H]2C(=O)O[C@H]([C@H](C)C[C@@H]2CC[C@@H](OC(=O)C(C)(C)CO)[C@H](OC)C2)CC(=O)[C@H](C)/C=C(\C)[C@@H](O)[C@@H](OC)C(=O)[C@H](C)C[C@H](C)/C=C/C=C/C=C/1C` [Example 4, Rapamycin 42-ester with 3-hydroxy-2,2-dimethylpropionic acid], in assay [2], the LAF ratio was determined as 1.25. Also, the half-inhibitory concentration (IC50) in assay [2] (setting [4]) turned out to be 0.8 nM. In addition, the “Skin graft survival time” value in assay [3] came out at 10.7 ± 0.5 days.
As for `COC1CC2CCC(C)C(O)(O2)C(=O)C(=O)N2CCCCC2C(=O)OC(C(C)CC2CCC(OC(=O)C3COC(C)(C)O3)C(OC)C2)CC(=O)C(C)C=C(C)C(O)C(OC)C(=O)C(C)CC(C)C=CC=CC=C1C` (centres unmarked) [Example 5, Rapamycin 42-ester with 2,2-dimethyl[1,3]dioxalane-4-carboxylic acid], the LAF ratio in assay [2] is given as 0.74. In assay [2] (setting [4]), the IC50 is 1.2 nM.
For `COC1CC2CCC(C)C(O)(O2)C(=O)C(=O)N2CCCCC2C(=O)OC(C(C)CC2CCC(OC(=O)C3COC(C)(C)O3)C(OC)C2)CC(=O)C(C)C=C(C)C(OC(=O)C2COC(C)(C)O2)C(OC)C(=O)C(C)CC(C)C=CC=CC=C1C` (centres unmarked) [Example 6, Rapamycin 31,42-diester with 2,2-dimethyl[1,3]dioxalane-4-carboxylic acid], in that order: 0.5 and 1.3 nM.
As for `COC1CC2CCC(C)C(O)(O2)C(=O)C(=O)N2CCCCC2C(=O)OC(C(C)CC2CCC(OC(=O)C3COC(C)(C)OC3)C(OC)C2)CC(=O)C(C)C=C(C)C(O)C(OC)C(=O)C(C)CC(C)C=CC=CC=C1C` (centres unmarked) [Example 8], the LAF ratio in assay [2] worked out at 0.45. The half-maximal inhibitory concentration (IC50) in assay [2] (setting [4]) came out at 0.76 nM.
In the same order, the values of `COC1CC2CCC(C)C(O)(O2)C(=O)C(=O)N2CCCCC2C(=O)OC(C(C)CC2CCC(OC(=O)C(CO)CO)C(OC)C2)CC(=O)C(C)C=C(C)C(O)C(OC)C(=O)C(C)CC(C)C=CC=CC=C1C` (centres unmarked) [Example 9, Rapamycin 42-ester with 3-hydroxy-2-hydroxymethylpropionic acid] are 0.57 and 0.84 nM.
With `CO[C@H]1C[C@@H]2CC[C@@H](C)[C@@](O)(O2)C(=O)C(=O)N2CCCC[C@H]2C(=O)O[C@H]([C@H](C)C[C@@H]2CC[C@@H](OC(=O)C3(C)COC(C)(C)OC3)[C@H](OC)C2)CC(=O)[C@H](C)/C=C(\C)[C@@H](O)[C@@H](OC)C(=O)[C@H](C)C[C@H](C)/C=C/C=C/C=C/1C` [Example 10], the LAF ratio in assay [2] came to 0.41. Besides, the IC50 in assay [2] (setting [4]) worked out at 4.9 nM. For the same compound, the “Skin graft survival time” value in assay [3] stood at 11.0 ± 1.3 days.
Consider `CO[C@H]1CC2CC[C@@H](C)[C@@](O)(O2)C(=O)C(=O)N2CCCC[C@H]2C(=O)O[C@H]([C@H](C)C[C@@H]2CC[C@@H](OC(=O)C(C)(CO)CO)[C@H](OC)C2)CC(=O)[C@H](C)/C=C(\C)[C@@H](O)[C@@H](OC)C(=O)[C@H](C)C[C@H](C)/C=C/C=C/C=C/1C` [Example 11, Rapamycin 42-ester with 2,2-bis-(hydroxymethyl)propionic acid], for which, in assay [1], the “Percent change in adjuvant arthritis versus control” value was less than 88%. Also, the “Skin graft survival time” value in assay [3] (4 mg/kg) is 11.4 ± 1.5 days and 12.0 ± 1.1 days.
On to `COC1CC2CCC(C)C(O)(O2)C(=O)C(=O)N2CCCCC2C(=O)OC(C(C)CC2CCC(OC(=O)C3(C)COC4(CCCCC4)OC3)C(OC)C2)CC(=O)C(C)C=C(C)C(O)C(OC)C(=O)C(C)CC(C)C=CC=CC=C1C` (centres unmarked) [Example 13, Rapamycin 42-ester with 3-methyl-1,5-dioxa-spiro[5.5]undecane 3-carboxylic acid], for which the LAF ratio in assay [2] was 2.00. Further, the IC50 in assay [2] (setting [4]) was found to be 0.6 nM.
As to `COC1CC2CCC(C)C(O)(O2)C(=O)C(=O)N2CCCCC2C(=O)OC(C(C)CC2CCC(OC(=O)C3(C)COC4(CCCCC4)OC3)C(OC)C2)CC(=O)C(C)C=C(C)C(OC(=O)C2(C)COC3(CCCCC3)OC2)C(OC)C(=O)C(C)CC(C)C=CC=CC=C1C` (centres unmarked) [Example 14, Rapamycin 31.42-diester with 3-methyl-1.5-dioxa-spiro[5.5]undecane 3-carboxylic acid], the “percent inhibition of T-cell proliferation” value in assay [2] (at 0.1 μM) turned out to be 43%.
Consider `CO[C@H]1C[C@@H]2CC[C@@H](C)[C@@](O)(O2)C(=O)C(=O)N2CCCC[C@H]2C(=O)O[C@H]([C@H](C)C[C@@H]2CC[C@@H](O)[C@H](OC)C2)CC(=O)[C@H](C)/C=C(\C)[C@@H](O)[C@@H](OC)C(=O)[C@H](C)C[C@H](C)/C=C/C=C/C=C/1C` [rapamycin, Rapamycin], for which the half-maximal inhibitory concentration (IC50) in assay [2] (Mus musculus, Thymocyte, 72 h) was in the range of 0.6 to 1.5 nM.
Regarding “Rapamycin 42-ester with 2,2-dimethyl-5-(2-trimethylsilanylethoxymethyl)[1,3]dioxane-5-carboxylic acid [Example 12]”, the LAF ratio in assay [2] is on record as 0.05. Besides, in assay [2] (setting [4]), the IC50 came out at 7.2 nM.
In the same order, the values of “Rapamycin 42-ester with 2,3-dihydroxypropionic acid [Example 7]” are 0.40 and 1.4 nM.
